In US8080544B2, “Prodrugs of CGRP receptor antagonists” (Merck Sharp & Dohme Corp., priority 2008, dated 2011):
Converted amounts (≈) assume the structure as drawn.

Columns and labels:
Aqueous solubility = type: physicochemical; conditions: for solubility: aqueous solution
Excerpt: The compounds of the present invention may have improved aqueous solubility compared with telcagepant.

[1] = In vivo conversion to telcagepant after IV dosing, rat (plasma AUC by LC/MS); conditions: 3.53 umol/kg, IV dose 3.53 μmol/kg, DMSO vehicle, plasma AUC of Compound 1 (telcagepant)
Excerpt: The compounds of the present invention may be efficiently converted to give parent telcagepant in vivo. For illustrative purposes, data for the in vivo conversion of Example 1 to telcagepant in preclinical species are shown in Table 2.

Row | Structure (SMILES) | solubility (Aqueous solubility; aqueous buffer, pH 4.0) | solubility (Aqueous solubility; aqueous buffer, pH 9.0) | solubility (Aqueous solubility; aqueous buffer, pH 2.0) | solubility (Aqueous solubility; pH 7.3, aqueous buffer) | aqueous solubility (in words) (Aqueous solubility; general statement, no pH given) | AUC [1]
1 | O=C(N[C@@H]1CC[C@@H](c2cccc(F)c2F)CN(CC(F)(F)F)C1=O)N1CCC(n2c(=O)n(COP(=O)([O-])O)c3ncccc32)CC1.[Na+] [Example 1, {1-[1-({[(3R,6S)-6-(2,3-Difluorophenyl)-2-oxo-1-(2,2,2-trifluoroethyl)azepan-3-yl]amino}carbonyl)piperidin-4-yl]-2-oxo-1,2-dihydro-3H-imidazo[4,5-b]pyridin-3-yl}methyl hydrogen sodium phosphate] | > 150000 µg/mL | > 150000 µg/mL |  |  |  | 
2 | O=C(N[C@@H]1CC[C@@H](c2cccc(F)c2F)CN(CC(F)(F)F)C1=O)N1CCC(n2c(=O)[nH]c3ncccc32)CC1 [Telcagepant, N-[(3R,6S)-6-(2,3-difluorophenyl)-2-oxo-1-(2,2,2-trifluoroethyl)azepan-3-yl]-4-(2-oxo-2,3-dihydro-1H-imidazo[4,5-b]pyridine-1-yl)piperidin-1-carboxamide] |  |  | 77 µg/mL (≈ 136 µM) | 31 µg/mL (≈ 54.7 µM) | low aqueous solubility | 6.46 µM·h
